Measurements published in US10745741B2, “Cell barcoding in microfluidics” (EUROPEAN MOLECULAR BIOLOGY LABORATORY, priority 2015, dated 2020).

Tests used:
p21 = p21 expression by qPCR on barcoded mRNA from drug-treated MCF-7 cells in droplets; assay type: cell-based; conditions: 12 h at 37° C., barcode 2B, qPCR (FIG. 8A)
Excerpt: (§1) Barcoding cellular mRNA according to particular drug treatments. The combinatorial microfluidic chip was used to generate droplets containing the following components: • MCF-7 cells+media+ligation mix+barcode fragment BC-1+barcode fragment BC-A+Thiostrepton • MCF-7 cells+media+ligation mix+barcode fragment BC-2+barcode fragment BC-B+Doxorubicin treated cells • MCF-7 cells+media+ligation mix+barcode fragment BC-1+barcode fragment BC-B The resulting emulsions were collected separately in droplet traps (as shown in Hu H et al., Lab Chip 2015) for 12 h at 37° C., before cell lysis was achieved by repeated freezing and thawing. Then the emulsion was broken and hybridized cellular mRNA was purified using streptaviding-coated beads. This step ensures that only mRNA hybridized to ligated barcode combinations (e.g. 1A for the Thiostrepton sample) is isolated. Subsequently reverse transcription was carried out and the abundance of target genes was assessed by qPCR using primers specific for the target genes. Barcode fragment combination is shown exemplary for fragments BC-A and BC-1 in FIG. 7, as well as the reverse transcription and qPCR using the barcode. Expression levels of p21 (FIG. 8A) and FoxM1 (FIG. 8B) were normalized to Actb expression and the fold change in expression was determined between treated and untreated cells.

FoxM1 = FoxM1 expression by qPCR on barcoded mRNA from drug-treated MCF-7 cells in droplets; assay type: cell-based; conditions: 12 h at 37° C., barcode combination 1A, qPCR (FIG. 8B)
Excerpt: as §1

| Structure (SMILES) | p21 expression normalized to Actb expression, fold change between treated and untreated cells (p21) | FoxM1 expression normalized to Actb expression, fold change between treated and untreated cells (FoxM1) |
| --- | --- | --- |
| COc1cccc2c1C(=O)c1c(O)c3c(c(O)c1C2=O)C[C@@](O)(C(=O)CO)C[C@@H]3O[C@H]1C[C@H](N)[C@H](O)[C@H](C)O1 [Doxorubicin] | significant upregulation |  |
| C=C(NC(=O)C(=C)NC(=O)c1csc(C2=N[C@@H]3c4csc(n4)[C@H]4NC(=O)c5csc(n5)[C@H]([C@](C)(O)[C@@H](C)O)NC(=O)[C@H]5CSC(=N5)/C(=C/C)NC(=O)[C@H]([C@@H](C)O)NC(=O)c5csc(n5)[C@]3(CC2)NC(=O)[C@H](C)NC(=O)C(=C)NC(=O)[C@H](C)NC(=O)[C@H]([C@@H](C)CC)N[C@@H]2C=Cc3c([C@H](C)O)cc(nc3[C@H]2O)C(=O)O[C@@H]4C)n1)C(N)=O [Thiostrepton] |  | significant downregulation |
